Series [1] can be described thus: Oral bioavailability in Sprague-Dawley rat plasma by LC/MS analysis. The format is ADME, organism-based.
Series [2] has as its system Plasmodium falciparum. Kind of series: Antiplasmodial activity against chloroquine-resistant Plasmodium falciparum W2 by NBT assay. It counts as functional, organism-based.
The test system of series [3] is Plasmodium falciparum. Kind of series: Antiplasmodial activity against chloroquine-sensitive Plasmodium falciparum D6 by NBT assay. The format is functional, organism-based.
For series [4], the system named is Calf thymus DNA. Kind of series: Binding affinity to calf thymus DNA assessed as melting temperature (reference value: 59.5 degC). The format is nucleic-acid assay. The settings on record: Bos taurus.
Series [5] has as its system Calf thymus DNA. Kind of series: Binding affinity to calf thymus DNA assessed as induction of red shift at 7.1 uM. The settings on record: Bos taurus. It counts as nucleic-acid assay.
Series [6] deals with Calf thymus DNA. Nature of the series: Binding affinity to calf thymus DNA assessed as induction of hypochromic shift in intensity of quinoline absorption band at 331 nm at 7.1 uM. It counts as nucleic-acid assay. The settings on record: Bos taurus.
The test system of series [7] is Plasmodium falciparum. Kind of series: Antimalarial activity against Plasmodium falciparum V1/S harboring DHFR N51I+C59R+S108N+I164L quadruple mutant assessed as reduction parasite growth by [3H]-hypoxanthine incorporation assay. The format is functional, organism-based.
Another series relates to Plasmodium berghei. Kind of series: Antiplasmodial against Plasmodium berghei in rat malaria model assessed as parasite suppression at 30 mg/kg measured after 4 days. The format is functional.
In series [8] the target is Dihydroorotate dehydrogenase (quinone), mitochondrial (Homo sapiens, UniProt Q02127). Nature of the series: Inhibition of human DHODH.

Broadly, the bioavailability is the share of a dose that reaches the circulation, judged against a reference dose that is usually intravenous. In general, IC50 refers to the concentration that gives 50% inhibition. High values mean a need for much substance, low ones inhibition by little substance. Usually EC50 stands for the midpoint of the concentration-response curve.

Dihydroorotate dehydrogenase (quinone), mitochondrial, sequence (Q02127 whole entry): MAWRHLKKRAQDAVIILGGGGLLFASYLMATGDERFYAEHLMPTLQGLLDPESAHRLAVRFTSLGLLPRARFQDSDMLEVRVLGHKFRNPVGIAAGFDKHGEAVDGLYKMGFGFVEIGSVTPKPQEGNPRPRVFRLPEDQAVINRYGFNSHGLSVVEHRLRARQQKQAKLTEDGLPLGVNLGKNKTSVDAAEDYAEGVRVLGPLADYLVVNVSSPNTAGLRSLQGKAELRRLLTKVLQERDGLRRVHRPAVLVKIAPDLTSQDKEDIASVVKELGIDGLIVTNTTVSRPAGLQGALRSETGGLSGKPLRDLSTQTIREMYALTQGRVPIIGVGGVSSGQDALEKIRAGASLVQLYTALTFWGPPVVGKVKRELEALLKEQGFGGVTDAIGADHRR

`Cc1nc(N)nc(N)c1OCCCOc1cc(Cl)c(Cl)cc1Cl`: the bioavailability in [1] came to 83%.

With `Clc1ccc2c(NCCNc3nc(Cl)cc(Cl)n3)ccnc2c1`, the half-maximal inhibitory concentration (IC50) in the series with Plasmodium falciparum [2] was 16 nM; in the series with Plasmodium falciparum [3] it was 6 nM.

`Cc1cc(N2CCOCC2)nc(NCCCCNc2ccnc3cc(Cl)ccc23)n1`: the IC50 in the series with Plasmodium falciparum [2] was 16 nM; with Plasmodium falciparum [3], 6 nM.

With `CCN1CCN(c2cc(C)nc(NCCCCNc3ccnc4cc(Cl)ccc34)n2)CC1`, the IC50 was 16 nM in the series with Plasmodium falciparum [2] and 6 nM with Plasmodium falciparum [3].

With `Cc1cc(N2CCOCC2)nc(NCCCCCCNc2ccnc3cc(Cl)ccc23)n1`, the IC50 with Plasmodium falciparum [2] was found to be 16 nM; in the series on Plasmodium falciparum [3], 6 nM.

For `Clc1ccc2c(NCCNc3nccc(N4CCCCC4)n3)ccnc2c1`, the IC50 in the series on Plasmodium falciparum [2] is 16 nM; in the series with Plasmodium falciparum [3], 6 nM.

`CC1(C)N=C(N)N=C(N)N1OCCCOc1cc(Cl)c(Cl)cc1Cl.Cl`: in [1], the bioavailability is 1%.

As for `CN1CCN(c2ccnc(NCCCNc3ccnc4cc(Cl)ccc34)n2)CC1`, the IC50 in the series with Plasmodium falciparum [2] was 16 nM; in the series with Plasmodium falciparum [3] it was 6 nM.

As to `Cc1cc(N2CCCCC2)nc(NCCCNc2ccnc3cc(Cl)ccc23)n1`, the values for the IC50 with Plasmodium falciparum [2] and in the series on Plasmodium falciparum [3] were 16 nM and 6 nM, respectively.

For `Cc1cc(N2CCN(C)CC2)nc(NCCCCCCNc2ccnc3cc(Cl)ccc23)n1`, the IC50 is 16 nM with Plasmodium falciparum [2] and 6 nM in the series on Plasmodium falciparum [3].

`Clc1ccc2c(NCCCNc3nccc(N4CCCCC4)n3)ccnc2c1`: the Tm in the series on Calf thymus DNA [4] was 67.8 °C. Also, the Activity in the series with Calf thymus DNA [5] was 14 nm; in the series on Calf thymus DNA [6], 23%.

With `Cc1cc(N2CCN(C)CC2)nc(NCCCNc2ccnc3cc(Cl)ccc23)n1`, the IC50 in the series on Plasmodium falciparum [2] was 16 nM; in the series on Plasmodium falciparum [3], 6 nM.

Consider `Cc1cc(N2CCCCC2)nc(NCCNc2ccnc3cc(Cl)ccc23)n1`, for which the results for the IC50 with Plasmodium falciparum [2] and in the series with Plasmodium falciparum [3] were 16 nM and 6 nM, respectively.

For `Cc1cc(N2CCCCC2)nc(NCCCCNc2ccnc3cc(Cl)ccc23)n1`, the IC50 with Plasmodium falciparum [2] was found to be 16 nM; in the series with Plasmodium falciparum [3], 6 nM.

For the compound `CCc1nc(N)nc(N)c1OCCCOc1ccccc1CCC(=O)O`, the concentration giving a half-maximal response (EC50) with Plasmodium falciparum [7] was determined as 56 nM.

For `Clc1ccc2c(NCCNc3ccnc(N4CCOCC4)n3)ccnc2c1`, the Activity in the series with Plasmodium berghei was 93.9%.

For `Cc1cc(N2CCOCC2)nc(NCCCNc2ccnc3cc(Cl)ccc23)n1`, the IC50 in the series on Plasmodium falciparum [2] came to 16 nM; in the series with Plasmodium falciparum [3], 6 nM.

Regarding `Cc1cc(N2CCN(C)CC2)nc(NCCCCNc2ccnc3cc(Cl)ccc23)n1`, the results for the IC50 in the series on Plasmodium falciparum [2] and in the series on Plasmodium falciparum [3] were 16 nM and 6 nM, respectively.

`Cc1cc(N2CCN(C)CC2)nc(NCCNc2ccnc3cc(Cl)ccc23)n1`: the IC50 with Plasmodium falciparum [2] amounted to 16 nM; with Plasmodium falciparum [3] it was 6 nM.

Consider `CCN1CCN(c2ccnc(NCCNc3ccnc4cc(Cl)ccc34)n2)CC1`, for which the IC50 in the series with Plasmodium falciparum [2] worked out at 16 nM; with Plasmodium falciparum [3] it was 6 nM.

On to `Cc1cc(N2CCCCC2)nc(NCCCCCCNc2ccnc3cc(Cl)ccc23)n1`, for which the IC50 in the series on Plasmodium falciparum [2] was 16 nM; in the series with Plasmodium falciparum [3] it was 6 nM.

Turning to `CCN1CCN(c2cc(C)nc(NCCCNc3ccnc4cc(Cl)ccc34)n2)CC1`, the values for the IC50 in the series with Plasmodium falciparum [2] and with Plasmodium falciparum [3] were 16 nM and 6 nM, respectively.

With `Cc1cc(N2CCOCC2)nc(NCCNc2ccnc3cc(Cl)ccc23)n1`, the IC50 in the series with Plasmodium falciparum [2] is 16 nM; in the series with Plasmodium falciparum [3], 6 nM.

Consider `Clc1ccc2c(NCCCNc3nccc(N4CCOCC4)n3)ccnc2c1`, for which the IC50 in the series with Plasmodium falciparum [2] was 16 nM; with Plasmodium falciparum [3] it was 6 nM.

Turning to `CN1CCN(c2ccnc(NCCNc3ccnc4cc(Cl)ccc34)n2)CC1`, the concentration for half-maximal inhibition (IC50) came out at 16 nM with Plasmodium falciparum [2] and 6 nM with Plasmodium falciparum [3].

As to `Cc1cc(Nc2ccc3ccccc3c2)n2ncnc2n1`, the concentration for half-maximal inhibition (IC50) in series [8] is > 200000 nM.

`Clc1ccc2c(NCCNc3nccc(Cl)n3)ccnc2c1`: the IC50 came out at 16 nM in the series on Plasmodium falciparum [2] and 6 nM with Plasmodium falciparum [3].

In the case of `CCN1CCN(c2ccnc(NCCCNc3ccnc4cc(Cl)ccc34)n2)CC1`, the IC50 in the series with Plasmodium falciparum [2] was 16 nM; in the series on Plasmodium falciparum [3] it was 6 nM.

Regarding `Clc1ccc2c(NCCNc3nccc(N4CCOCC4)n3)ccnc2c1`, the IC50 with Plasmodium falciparum [2] was determined as 16 nM; with Plasmodium falciparum [3] it was 6 nM.

Regarding `Clc1ccc2c(NCCCNc3nc(Cl)cc(Cl)n3)ccnc2c1`, the IC50 was determined as 16 nM in the series with Plasmodium falciparum [2] and 6 nM in the series on Plasmodium falciparum [3].

Source of the values: ChEMBL document CHEMBL3817764, “Pyrimidine-based antimalarials: design strategies and antiplasmodial effects” (Medchemcomm, 2016).
